The target in the assay is BRD4 (BD1+BD2) bromodomain (Homo sapiens (Human), UniProt O60885). Description: BRD4 binding inhibition (AlphaScreen, GST-BRD4 vs tetraacetylated histone H4 peptide). The gist of the method: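 GST-BRD4 (BD1+BD2) and biotinylated tetraacetyl-histone H4 peptide, each at 100 nM in HEPES pH 7.4 buffer with BSA and DTT, were combined with compound. Glutathione acceptor and streptavidin donor beads were added, then incubated 30 min at room temperature in the dark. Read-out was AlphaScreen signal.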

Where [1] appears, read: GST-BRD4 (BD1+BD2) / biotinylated acetyl-histone H4 (Lys5,8,12,16) peptide, read-out: IC50, BRD4 binding inhibition.
Where [2] appears, read: GST-BRD4 (BD1+BD2) vs biotinylated acetyl-histone H4 peptide, AlphaScreen, read-out: BRD4 IC50.

Like-named read-outs stand apart in the source and are kept apart here.

In the case of `Cc1nnc2c(NCCCCNC(=O)c3ccc(Cl)nc3Cl)nc3ccccc3n12` [Example 19, 2,6-dichloro-N-[4-(1-methyl-[1,2,4]triazolo[4,3-a]quinoxaline-4-ylamino)-butyl]-nicotinamide], the IC50 (as a rule, the concentration that inhibits the measured activity by half) under setting [1] is no more than 50 nM and the IC50 under setting [2] came out at 36 nM.
Consider `Cc1ccc2nc(NCCCCNC(=O)NC(C)(C)C)c3nnc(C)n3c2c1` [Example 44, 1-tert--butyl-3-[4-(1,8-dimethyl-[1,2,4]triazolo[4,3-a]quinoxaline-4-ylamino)-butyl]-urea], for which the IC50 under setting [2] turned out to be 72 nM.
As to `COCCOc1ccc2c(c1)nc(NCCCCNC(=O)OC(C)(C)C)c1nnc(C)n12` [Example 363, {4-[7-(2-methoxy-ethoxy)-1-methyl-[1,2,4]triazolo[4,3-a]quinoxaline-4-ylamino]-butyl}-carbamic acid-tert-butylester], the IC50 under setting [1] is no more than 50 nM and the IC50 under setting [2] amounted to 16 nM.
Regarding `Cc1nnc2c(NCCCCNC(=O)OC(C)(C)C)nc3ccc(C(=O)NC(C)C)cc3n12` [Example 532, [4-(8-isopropylcarbamoyl-1-methyl-[1,2,4]triazolo[4,3-a]quinoxaline-4-ylamino)-butyl]-carbamic acid-tert-butylester], the IC50 under setting [2] worked out at 75 nM.
On the same count and under the same terms, the same measure for `COc1ccc(C(=O)c2ccc3c(c2)nc(NCCCCNC(=O)OC(C)(C)C)c2nnc(C)n23)cc1` [Example 262, {4-[7-(4-methoxy-benzoyl)-1-methyl-[1,2,4]triazolo[4,3-a]quinoxaline-4-ylamino]-butyl}-carbamic acid-tert-butylester]: 72 nM; for `COc1cc2nc(NCCCCNC(=O)CC(C)C)c3nnc(C(F)(F)F)n3c2cc1OC` [Example 593, N-[4-(7,8-dimethoxy-1-trifluoromethyl-[1,2,4]triazolo[4,3-a]quinoxaline-4-ylamino)-butyl]-3-methyl-butyramide]: 92 nM.
The same measure, in the same setting: under `Cc1nnc2c(NCCCCNC(=O)CC(C)C)nc3cc(OCc4ccc(-c5nn[nH]n5)cc4)ccc3n12` [Example 348, 3-methyl-N-(4-{1-methyl-7-[4-(2H-tetrazol-5-yl)-benzyloxy]-[1,2,4]triazolo[4,3-a]quinoxaline-4-ylamino}-butyl)-butyramide] stands 100 nM.
Take `Cc1nnc2c(NCCCCNC(=O)Nc3cccc(F)c3)nc3ccccc3n12` [Example 24, 1-(3-fluoro-phenyl)-3-[4-(1-methyl-[1,2,4]triazolo[4,3-a]quinoxaline-4-ylamino)-butyl]-urea]: the IC50 under setting [2] stood at 67 nM.
For the compound `COc1ccc2c(c1)nc(NCCCCNC(=O)OC(C)C)c1nnc(C(F)(F)F)n12` [Example 589, [4-(7-methoxy-1-trifluoromethyl-[1,2,4]triazolo[4,3-a]quinoxaline-4-ylamino)-butyl]-carbamic acid isopropylester], the IC50 runs as follows: under setting [1], no more than 50 nM; under setting [2], 46 nM.
For `Cc1nnc2c(NCCCCNC(=O)OC(C)(C)C)nc3ccc(N)cc3n12` [Example 542, [4-(8-amino-1-methyl-[1,2,4]triazolo[4,3-a]quinoxaline-4-ylamino)-butyl]-carbamic acid-tert-butylester], the IC50 under setting [2] was 61 nM.
On to `Cc1nnc2c(NCCCCNC(=O)c3ccccc3)nc3ccc(F)cc3n12` [Example 51, N-[4-(8-fluoro-1-methyl-[1,2,4]triazolo[4,3-a]quinoxaline-4-ylamino)-butyl]-benzamide], for which, under setting [1], the IC50 is no more than 50 nM.
On the same count and under the same terms, under `COc1cc(C)c2c(c1)nc(NCCCCNC(=O)OC(C)C)c1nnc(C)n12` [Example 457, [4-(7-methoxy-1,9-dimethyl-[1,2,4]triazolo[4,3-a]quinoxaline-4-ylamino)-butyl]-carbamic acid-isopropylester] stands no more than 50 nM.
With `Cc1nnc2c(NCCCCNC(=O)C(C)(C)C)nc3cc(Cl)c(Cl)cc3n12` [Example 28, N-[4-(7,8-dichloro-1-methyl-[1,2,4]triazolo[4,3-a]quinoxaline-4-ylamino)-butyl]-2,2-dimethyl-propionamide], the IC50 under setting [2] was 96 nM.

The values are drawn from patent US11028090B2 (Dong Wha Pharm. Co., Ltd., priority 2017, dated 2021).
